Test system: breast cancer patients
Assay: clinical study of paclitaxel preoperative chemotherapy: adverse side effects graded by NCI-CTC
Assay type: in vivo, human
Conditions: 54 breast cancer patients, stage II or IIIa; 80 mg/m paclitaxel by intravenous infusion over 1 hour, once a week for 12 weeks
Protocol: 54 breast cancer patients were registered in a clinical study of paclitaxel preoperative chemotherapy. The following summarizes the criteria for patient selection. 1) Breast cancer patients age 70 or younger in stage II or IIIa as indicated by histopathological testing; and, 2) suitable physiological function (WBC >4,000 mm^3, platelet count […], hemoglobin level >10 g/dl, serum creatinine concentration <1.2 mg/dl, serum total bilirubin level <1.5 mg/dl, GOT/GPT <60/70). Patients who received proceeding chemotherapy or radiation therapy were excluded. Namely, all 54 patients who participated in this clinical study of paclitaxel preoperative chemotherapy were nearly at the same stage either clinically or histologically, and had no prior history of chemotherapy. […]
White blood cell count, red blood cell count, hemoglobin level and platelet count were measured weekly for each patient to evaluate the presence or absence of adverse side effects. Adverse side effects observed during the course of therapy were evaluated and graded based on the Common Toxicity Criteria of the US National Cancer Institute (NCI-CTC) (see Trotti, A., et al., Common toxicity criteria: version 2.0—an improved reference for grading the acute effects of cancer treatment: impact on radiotherapy, Int. J. Radiat. Oncol. Biol. Phys., 47: 13-47, 2000). […]

CC(=O)O[C@H]1C(=O)[C@@]2(C)[C@H]([C@H](OC(=O)c3ccccc3)[C@]3(O)C[C@H](OC(=O)[C@H](O)[C@@H](NC(=O)c4ccccc4)c4ccccc4)C(C)=C1C3(C)C)[C@]1(OC(C)=O)CO[C@@H]1C[C@@H]2O [paclitaxel]
granulocytopenia observed (most frequently observed adverse side effect; NCI-CTC grade 1 to 4): 24 patients

— US20070238098A1, “Method and Kit for Predicting Adverse Side Effects of Paclitaxel Therapy” (priority 2003, published 2007)
